Data published in ChEMBL document CHEMBL4811319, “Optimization of 1,4-bis(arylsulfonamido)naphthalene-N,N'-diacetic acids as inhibitors of Keap1-Nrf2 protein-protein interaction to suppress neuroinflammation” (Bioorg Med Chem, 2021).
Active and inactive are the calls of the source. The rule behind the calls is not given here.

Assays:
BV-2 [1] = test: Cytotoxicity against mouse BV-2 cells up to 50 uM by Alamar blue assay; format: cell-based
Keap1/Nrf2 [2] = biological target: T1, Keap1/Nrf2 (Homo sapiens, UniProt Q14145); test: Inhibition of recombinant human KEAP1 Kelch domain (321 to 609 residues) expressed in Escherichia coli BL21 (DE3)pLysS cells interaction with FITC-9mer Nrf2 (unknown origin) incubated for 30 mins under shaking condition by fluorescence polarization assay
T1 sequence (Q16236 whole entry, the tested form may be a part): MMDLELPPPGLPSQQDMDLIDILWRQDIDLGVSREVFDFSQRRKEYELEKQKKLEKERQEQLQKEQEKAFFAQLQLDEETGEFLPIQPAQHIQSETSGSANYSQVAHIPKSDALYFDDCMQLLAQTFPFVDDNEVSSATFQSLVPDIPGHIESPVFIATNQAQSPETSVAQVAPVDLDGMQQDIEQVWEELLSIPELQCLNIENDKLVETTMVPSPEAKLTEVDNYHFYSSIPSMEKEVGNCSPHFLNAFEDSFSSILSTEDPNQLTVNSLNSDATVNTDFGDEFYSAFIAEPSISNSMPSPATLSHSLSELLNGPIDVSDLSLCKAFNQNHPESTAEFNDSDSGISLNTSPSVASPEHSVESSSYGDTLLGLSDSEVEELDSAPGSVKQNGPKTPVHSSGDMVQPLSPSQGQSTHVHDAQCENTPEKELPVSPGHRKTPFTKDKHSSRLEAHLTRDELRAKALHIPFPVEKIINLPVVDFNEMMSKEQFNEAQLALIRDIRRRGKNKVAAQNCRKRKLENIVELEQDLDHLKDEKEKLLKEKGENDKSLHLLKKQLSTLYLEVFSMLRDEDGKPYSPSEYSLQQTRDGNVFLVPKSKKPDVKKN
T1 sequence (Q14145 whole entry, the tested form may be a part): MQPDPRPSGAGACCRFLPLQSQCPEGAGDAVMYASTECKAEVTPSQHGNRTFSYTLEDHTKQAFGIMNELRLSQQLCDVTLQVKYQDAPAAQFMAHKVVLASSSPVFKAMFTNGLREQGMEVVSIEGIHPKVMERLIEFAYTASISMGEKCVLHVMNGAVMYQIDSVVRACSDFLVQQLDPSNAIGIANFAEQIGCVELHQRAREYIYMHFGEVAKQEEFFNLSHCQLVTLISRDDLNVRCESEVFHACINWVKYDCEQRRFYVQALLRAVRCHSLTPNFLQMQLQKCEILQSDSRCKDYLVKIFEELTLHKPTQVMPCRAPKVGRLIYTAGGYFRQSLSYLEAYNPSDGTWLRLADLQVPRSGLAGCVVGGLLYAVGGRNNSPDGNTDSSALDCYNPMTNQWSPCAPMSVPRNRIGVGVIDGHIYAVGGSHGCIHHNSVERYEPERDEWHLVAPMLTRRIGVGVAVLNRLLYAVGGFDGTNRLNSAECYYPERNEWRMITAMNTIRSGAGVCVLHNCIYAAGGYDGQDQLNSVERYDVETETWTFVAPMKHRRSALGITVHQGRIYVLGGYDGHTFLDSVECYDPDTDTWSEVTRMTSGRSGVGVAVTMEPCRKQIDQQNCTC

HepG2 = test: Cytotoxicity against human HepG2 cells up to 50 uM by Alamar blue assay; format: cell-based
[3] = biological target: T2, Nuclear factor erythroid 2-related factor 2 (Mus musculus) (UniProt Q60795); test: Activation of Nrf2 in mouse BV-2 cells assessed as increase in HO-1 mRNA level at 10 uM measured within 6 hrs by qRT-PCR analysis relative to negative control; format: cell-based; conditions: time hrs <6
T2 sequence (whole entry): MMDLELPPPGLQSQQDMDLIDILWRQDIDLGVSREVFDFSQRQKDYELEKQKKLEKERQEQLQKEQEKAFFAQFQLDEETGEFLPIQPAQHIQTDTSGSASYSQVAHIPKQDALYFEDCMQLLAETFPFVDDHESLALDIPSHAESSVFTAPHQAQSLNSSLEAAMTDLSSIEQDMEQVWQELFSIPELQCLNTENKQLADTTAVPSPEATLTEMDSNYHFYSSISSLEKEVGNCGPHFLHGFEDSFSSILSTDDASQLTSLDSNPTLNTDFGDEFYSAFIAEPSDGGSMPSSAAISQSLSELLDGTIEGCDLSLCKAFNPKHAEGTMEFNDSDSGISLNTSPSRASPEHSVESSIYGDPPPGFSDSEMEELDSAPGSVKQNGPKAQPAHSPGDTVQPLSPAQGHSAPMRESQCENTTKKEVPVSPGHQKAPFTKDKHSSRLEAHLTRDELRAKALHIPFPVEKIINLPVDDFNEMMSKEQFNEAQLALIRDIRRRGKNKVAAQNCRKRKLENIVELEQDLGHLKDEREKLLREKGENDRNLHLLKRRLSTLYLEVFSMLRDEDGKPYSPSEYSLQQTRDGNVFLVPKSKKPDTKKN

[4] = biological target: Keap1/Nrf2 (Homo sapiens) (UniProt Q16236+Q14145); test: Inhibition of Keap1-Nrf2 protein-protein interaction in human HepG2-ARE-C8 cells assessed as Nrf2 activation mediated ARE-driven luciferase activity by measuring fold change at 10 uM measured after 24 hrs by luciferase reporter gene assay; format: cell-based
Sequence of Keap1/Nrf2 (Homo sapiens) (Q14145 whole entry, looked up, the tested form may be a part): as the sequence (Q14145 whole entry, the tested form may be a part) above
Sequence of Keap1/Nrf2 (Homo sapiens) (Q16236 whole entry, looked up, the tested form may be a part): as the sequence (Q16236 whole entry, the tested form may be a part) above

Keap1/Nrf2 [5] = biological target: T1, Keap1/Nrf2; test: Inhibition of recombinant human KEAP1 Kelch domain (321 to 609 residues) expressed in Escherichia coli BL21 (DE3)pLysS cells interaction with FITC-9mer Nrf2 (unknown origin) incubated for 30 mins under shaking condition by TR-FRET assay
[6] = biological target: T2, Nuclear factor erythroid 2-related factor 2 (Mus musculus); test: Activation of Nrf2 in mouse BV-2 cells assessed as increase in NQO-1 mRNA level at 10 uM measured after 6 hrs by qRT-PCR analysis relative to control; format: cell-based; conditions: filed as activator
BV-2 [7] = test: Antiinflammatory activity in mouse BV-2 cells assessed as suppression of LPS-induced TNF-alpha mRNA expression at 10 uM measured up to 24 hrs by qRT-PCR analysis; format: functional, cell-based
[8] = biological target: T2, Nuclear factor erythroid 2-related factor 2 (Mus musculus); test: Activation of Nrf2 in mouse BV-2 cells assessed as increase in DNA binding activity at 10 uM measured after 6 hrs by spectrophotometric analysis relative to control; format: cell-based; conditions: filed as activator
[9] = biological target: T2, Nuclear factor erythroid 2-related factor 2 (Mus musculus); test: Activation of Nrf2 in mouse BV-2 cells assessed as increase in NQO-1 mRNA level at 1 to 10 uM by qRT-PCR analysis; format: cell-based; conditions: filed as activator, dose 1-10 µM, time 6-24 hrs
[10] = biological target: T2, Nuclear factor erythroid 2-related factor 2 (Mus musculus); test: Activation of Nrf2 in mouse BV-2 cells assessed as upregulation of HO-1 protein expression at 10 uM measured after 24 hrs by Western blot analysis relative to control; format: cell-based; conditions: filed as activator
[11] = biological target: T2, Nuclear factor erythroid 2-related factor 2 (Mus musculus); test: Activation of Nrf2 in mouse BV-2 cells assessed as increase in NQO-1 mRNA level at 10 uM measured after 24 hrs by qRT-PCR analysis relative to control; format: cell-based; conditions: filed as activator
BV-2 [12] = test: Antiinflammatory activity in mouse BV-2 cells assessed as suppression of LPS-induced […] mRNA expression at 10 uM measured up to 24 hrs by qRT-PCR analysis; format: functional, cell-based
[13] = biological target: T2, Nuclear factor erythroid 2-related factor 2 (Mus musculus); test: Activation of Nrf2 in mouse BV-2 cells assessed as increase in HO-1 mRNA level at 1 to 10 uM measured up to 24 hrs by qRT-PCR analysis relative to control; format: cell-based
BV-2 [14] = test: Antiinflammatory activity in mouse BV-2 cells assessed as suppression of LPS-induced IL-6 protein expression at 10 uM measured up to 24 hrs by ELISA; format: functional, cell-based
[15] = biological target: T2, Nuclear factor erythroid 2-related factor 2 (Mus musculus); test: Activation of Nrf2 in mouse BV-2 cells assessed as upregulation of HO-1 protein expression measured after 24 hrs by Western blot analysis; format: cell-based; conditions: filed as activator
BV-2 [16] = test: Antiinflammatory activity in mouse BV-2 cells assessed as suppression of LPS-induced IL-6 mRNA expression at 10 uM measured up to 24 hrs by qRT-PCR analysis; format: functional, cell-based
[17] = biological target: T2, Nuclear factor erythroid 2-related factor 2 (Mus musculus); test: Activation of Nrf2 in mouse BV-2 cells assessed as upregulation of NQO-1 protein expression measured after 24 hrs by Western blot analysis; format: cell-based; conditions: filed as activator
BV-2 [18] = test: Antiinflammatory activity in mouse BV-2 cells assessed as suppression of LPS-induced […] protein expression at 10 uM measured up to 24 hrs by ELISA; format: functional, cell-based
[19] = biological target: T2, Nuclear factor erythroid 2-related factor 2 (Mus musculus); test: Activation of Nrf2 in mouse BV-2 cells assessed as increase in NQO-1 mRNA level measured after 6 to 24 hrs by qRT-PCR analysis; format: cell-based; conditions: filed as activator, dose 1-10 µM, time 6-24 hrs
[20] = biological target: T2, Nuclear factor erythroid 2-related factor 2 (Mus musculus); test: Activation of Nrf2 in mouse BV-2 cells assessed as increase in translocation of Nrf2 into nucleus at 10 uM measured after 6 to 24 hrs by […]; format: cell-based; conditions: filed as activator, time 6-24 hrs
[21] = biological target: T2, Nuclear factor erythroid 2-related factor 2 (Mus musculus); test: Activation of Nrf2 in mouse BV-2 cells assessed as increase in DNA binding activity at 10 uM measured after 24 hrs by spectrophotometric analysis relative to control; format: cell-based; conditions: filed as activator
BV-2 [22] = test: Upregulation of NQO-1 in mouse BV-2 cells transfected with Nrf2 shRNA at 10 uM measured after 24 hrs by qPCR analysis; format: functional, cell-based
BV-2 [23] = test: Antiinflammatory activity in mouse BV-2 cells assessed as suppression of LPS-induced TNF-alpha protein expression at 10 uM measured up to 24 hrs by ELISA; format: functional, cell-based
BV-2 [24] = test: Upregulation of HO-1 in mouse BV-2 cells transfected with Nrf2 shRNA at 10 uM measured after 24 hrs by qPCR analysis; format: functional, cell-based
[25] = biological target: T2, Nuclear factor erythroid 2-related factor 2 (Mus musculus); test: Activation of Nrf2 in mouse BV-2 cells assessed as upregulation of NQO-1 protein expression at 10 uM measured after 24 hrs by Western blot analysis relative to control; format: cell-based; conditions: filed as activator
[26] = biological target: T2, Nuclear factor erythroid 2-related factor 2 (Mus musculus); test: Activation of Nrf2 in mouse BV-2 cells assessed as increase in HO-1 mRNA level at 10 uM measured after 24 hrs by qRT-PCR analysis relative to control; format: cell-based; conditions: filed as activator
[27] = biological target: T2, Nuclear factor erythroid 2-related factor 2 (Mus musculus); test: Activation of Nrf2 in mouse BV-2 cells assessed as upregulation of HO-1 protein expression at 20 uM measured after 24 hrs by Western blot analysis; format: cell-based; conditions: filed as activator
[28] = biological target: T2, Nuclear factor erythroid 2-related factor 2 (Mus musculus); test: Activation of Nrf2 in mouse BV-2 cells assessed as upregulation of NQO-1 protein expression at 20 uM measured after 24 hrs by Western blot analysis; format: cell-based; conditions: filed as activator

O=C(O)CN(c1ccc(N(CC(=O)O)S(=O)(=O)c2ccc3c(c2)OCO3)c2ccccc12)S(=O)(=O)c1ccc2c(c1)OCO2
Activity (BV-2 [1]): Non-Toxic
IC50 (Keap1/Nrf2 [2]): 149 nM
Activity (HepG2): Non-Toxic
fold change (FC) [3]: < 2
fold change (FC) [4]: > 2

COc1ccc(S(=O)(=O)N(Cc2nnn[nH]2)c2ccc(N(Cc3nnn[nH]3)S(=O)(=O)c3ccc(OC)cc3)c3ccccc23)cc1
IC50 (Keap1/Nrf2 [2]): 96.7 nM
IC50 (Keap1/Nrf2 [5]): 10.8 nM

O=S(=O)(c1ccc2c(c1)OCCO2)N(Cc1nnn[nH]1)c1ccc(N(Cc2nnn[nH]2)S(=O)(=O)c2ccc3c(c2)OCCO3)c2ccccc12
Activity (BV-2 [1]): Non-Toxic
IC50 (Keap1/Nrf2 [2]): 93.5 nM
Activity (HepG2): Non-Toxic
fold change (FC) [3]: < 2
IC50 (Keap1/Nrf2 [5]): 7.2 nM

O=C(O)CN(c1ccc(N(CC(=O)O)S(=O)(=O)c2ccc(NC(=O)C(F)(F)F)cc2)c2ccccc12)S(=O)(=O)c1ccc(NC(=O)C(F)(F)F)cc1
IC50 (Keap1/Nrf2 [2]): 126 nM

O=C(O)CN(c1ccc(N(CC(=O)O)S(=O)(=O)c2ccc3c(c2)CCCO3)c2ccccc12)S(=O)(=O)c1ccc2c(c1)CCCO2
Activity (BV-2 [1]): Non-Toxic
IC50 (Keap1/Nrf2 [2]): 146 nM
Activity (HepG2): Non-Toxic
fold change (FC) [6]: 4
fold change (FC) [3]: < 2

O=C(O)CN(c1ccc(N(CC(=O)O)S(=O)(=O)c2ccc(N3C(=O)c4ccccc4C3=O)cc2)c2ccccc12)S(=O)(=O)c1ccc(N2C(=O)c3ccccc3C2=O)cc1
IC50 (Keap1/Nrf2 [2]): 82 nM
IC50 (Keap1/Nrf2 [5]): 11.5 nM

O=S(=O)(c1ccc(C(F)(F)F)cc1)N(Cc1nnn[nH]1)c1ccc(N(Cc2nnn[nH]2)S(=O)(=O)c2ccc(C(F)(F)F)cc2)c2ccccc12
IC50 (Keap1/Nrf2 [2]): 302 nM

O=C(O)CN(c1ccc(N(CC(=O)O)S(=O)(=O)c2ccc3c(c2)OCCO3)c2ccccc12)S(=O)(=O)c1ccc2c(c1)OCCO2
Activity (BV-2 [1]): Non-Toxic
IC50 (Keap1/Nrf2 [2]): 120 nM
Activity (HepG2): Non-Toxic
fold change (FC) [3]: < 2
IC50 (Keap1/Nrf2 [5]): 31.3 nM

O=C(O)CN(c1ccc(N(CC(=O)O)S(=O)(=O)c2cc3c(cc2Cl)OCCO3)c2ccccc12)S(=O)(=O)c1cc2c(cc1Cl)OCCO2
Activity (BV-2 [7]): Active
fold change (FC) [8]: 3
Activity [9]: Tde
fold change (FC) [10]: 2
fold change (FC) [11]: 18
Activity (BV-2 [12]): Active
fold change (FC) [13]: < 2
Activity (BV-2 [14]): Active
Activity (BV-2 [1]): Non-Toxic
IC50 (Keap1/Nrf2 [2]): 144 nM
Activity [15]: Dose-Dependent Effect
Activity (BV-2 [16]): Active
Activity [17]: Dose-Dependent Effect
Activity (BV-2 [18]): Active
Activity [19]: Dose-Dependent Effect
Activity [20]: Active
Activity (HepG2): Non-Toxic
fold change (FC) [21]: 3
Activity (BV-2 [22]): inactive
fold change (FC) [6]: 3
fold change (FC) [3]: < 2
Activity (BV-2 [23]): Active
fold change (FC) [4]: > 2
IC50 (Keap1/Nrf2 [5]): 8.9 nM
Activity (BV-2 [24]): inactive
fold change (FC) [25]: 3

O=C(O)CN(c1ccc(N(CC(=O)O)S(=O)(=O)c2ccc3c(c2)CCO3)c2ccccc12)S(=O)(=O)c1ccc2c(c1)CCO2
Activity (BV-2 [1]): Non-Toxic
IC50 (Keap1/Nrf2 [2]): 164 nM
fold change (FC) [26]: 4
Activity (HepG2): Non-Toxic
fold change (FC) [3]: < 2

COc1ccc(S(=O)(=O)N(CC(=O)O)c2ccc(N(CC(=O)O)S(=O)(=O)c3ccc(OC)cc3Br)c3ccccc23)c(Br)c1
IC50 (Keap1/Nrf2 [2]): 184 nM

O=C(O)CN(c1ccc(N(CC(=O)O)S(=O)(=O)c2ccc(C(F)(F)F)cc2)c2ccccc12)S(=O)(=O)c1ccc(C(F)(F)F)cc1
IC50 (Keap1/Nrf2 [2]): 384 nM

O=C(O)CN(c1ccc(N(CC(=O)O)S(=O)(=O)c2ccc(Br)cc2)c2ccccc12)S(=O)(=O)c1ccc(Br)cc1
IC50 (Keap1/Nrf2 [2]): 235 nM

CS(=O)(=O)Nc1ccc(S(=O)(=O)N(CC(=O)O)c2ccc(N(CC(=O)O)S(=O)(=O)c3ccc(NS(C)(=O)=O)cc3)c3ccccc23)cc1
IC50 (Keap1/Nrf2 [2]): 194 nM

CN(C)C=O
Activity [27]: Active
Activity [28]: Active
